Measurements: US20070128217A1 (priority 2003, published 2007)

Legend:
[1] = system: antibodies in sera from SARS patients (sera 1a, 1b, 2, 6, 37, 62, London, SARS-yellow, SARS-green); type: binding, human; set-up: Binding of serum 6 to linear peptides of protein X1 of SARS-CoV Urbani / Binding of serum 37 to linear peptides of protein X1 of SARS-CoV Urbani / Binding of serum 6 to looped/cyclic peptide (PEPSCAN-ELISA) / Binding of serum 37 to looped/cyclic peptide (PEPSCAN-ELISA) / Binding of serum 37 to looped/cyclic peptides of protein X1 of SARS-CoV Urbani / Binding of serum 6 to linear peptides of protein X2 / Binding of serum 37 to linear peptides of protein X2 / Binding of serum 37 to looped/cyclic peptides of protein X2 of SARS-CoV Urbani / Binding of serum 6 to linear peptides of protein M of SARS-CoV Urbani / Binding of serum 37 to linear peptides of protein M of SARS-CoV Urbani / Binding of serum 6 to looped/cyclic peptides of protein M of SARS-CoV Urbani / Binding of serum 37 to looped/cyclic peptides of protein M of SARS-CoV Urbani / Binding of serum 6 to linear peptides of protein X3 of SARS-CoV Urbani / Binding of serum 37 to linear peptides of protein X3 of SARS-CoV Urbani / Binding of serum 37 to looped/cyclic peptides of protein X3 of SARS-CoV Urbani / Binding of serum 6 to linear peptides of protein X4 of SARS-CoV Urbani / Binding of serum 37 to linear peptides of protein X4 of SARS-CoV Urbani / Binding of serum 37 to looped/cyclic peptides of protein X4 of SARS-CoV Urbani / Binding of serum 6 to linear peptides of protein X5 of SARS-CoV Urbani / Binding of serum 37 to linear peptides of protein X5 of SARS-CoV Urbani / Binding of serum 37 to looped/cyclic peptides of protein X5 of SARS-CoV Urbani / Binding of serum 6 to linear peptides of protein N of SARS-CoV Urbani / Binding of serum 37 to linear peptides of protein N of SARS-CoV Urbani / Binding of serum 6 to linear peptide (PEPSCAN-ELISA) / Binding of serum 1a to looped/cyclic peptides of protein N of SARS-CoV Urbani / Binding of serum 1b to looped/cyclic peptides of protein N of SARS-CoV Urbani / Binding of serum 2 to looped/cyclic peptides of protein N of SARS-CoV Urbani / Binding of serum 6 to looped/cyclic peptides of protein N of SARS-CoV Urbani / Binding of serum 37 to looped/cyclic peptides of protein N of SARS-CoV Urbani / Binding of serum 62 to looped/cyclic peptides of protein N of SARS-CoV Urbani / Binding of serum London to looped/cyclic peptides of protein N of SARS-CoV Urbani / Binding of serum SARS-green to looped/cyclic peptides of protein N of SARS-CoV Urbani: unit not given here
[2] = system: control sera (pooled serum of ten healthy LUMC hospital workers; commercial negative donor pooled serum from the Dutch bloodbank); type: binding, human; set-up: Binding of Control serum LUMC to linear peptides / Binding of Control serum Blood-bank to linear peptides / Binding of Control serum LUMC to looped peptides / Binding of Control Serum Blood-Bank to Looped peptides / Binding of Control serum LUMC to linear peptides of the protein M of SARS-CoV Urbani / Binding of Control serum Blood-bank to linear peptides of the protein M of SARS-CoV Urbani / Binding of Control serum LUMC to looped peptides of the protein M of SARS-CoV Urbani / Binding of Control Serum Blood-Bank to Looped peptides of the protein M of SARS-CoV Urbani: unit not given here
[3] = system: rabbit serum obtained by immunizing a rabbit with the SARS-CoV strain Frankfurt 1; type: binding; set-up: Binding of a rabbit serum to linear peptides / Binding of a rabbit serum to looped peptides / Rabbit serum linear peptides / Rabbit serum looped peptides / Binding of a rabbit serum to linear peptides of protein N of SARS-CoV Urbani (Rabbit serum linear peptides) / Binding of a rabbit serum to looped/cyclic peptides of protein N of SARS-CoV Urbani (Rabbit serum looped peptides): unit not given here

| Sequence | Binding of serum 1a to linear peptides of protein X2 [1] | Binding of serum 1a to looped/cyclic peptides of protein X2 of SARS-CoV Urbani [1] | Binding of serum 1b to linear peptides of protein X2 [1] | Binding of serum 1b to looped/cyclic peptides of protein X2 of SARS-CoV Urbani [1] | Binding of serum 2 to linear peptides of protein X2 [1] | Binding of serum 2 to looped/cyclic peptides of protein X2 of SARS-CoV Urbani [1] | Binding of serum 6 to linear peptides of protein X2 [1] | Binding of serum 6 to looped/cyclic peptides of protein X2 of SARS-CoV Urbani [1] | Binding of serum 37 to linear peptides of protein X2 [1] | Binding of serum 37 to looped/cyclic peptides of protein X2 of SARS-CoV Urbani [1] | Binding of serum 62 to linear peptides of protein X2 [1] | Binding of serum 62 to looped/cyclic peptides of protein X2 of SARS-CoV Urbani [1] | Binding of serum London to linear peptides of protein X2 [1] | Binding of serum London to looped/cyclic peptides of protein X2 of SARS-CoV Urbani [1] | Binding of serum SARS-green to linear peptides of protein X2 [1] | Binding of serum SARS-green to looped/cyclic peptides of protein X2 of SARS-CoV Urbani [1] | Binding of Control Serum Blood-Bank to Looped peptides [2] | Binding of Control serum Blood-bank to linear peptides [2] | Binding of Control serum LUMC to linear peptides [2] | Binding of Control serum LUMC to looped peptides [2] | further results |
| --- | --- | --- | --- | --- | --- | --- | --- | --- | --- | --- | --- | --- | --- | --- | --- | --- | --- | --- | --- | --- | --- |
| LSLHKLLQTLVLKML | 0.7 | 0.5 | 0.4 | 0.4 | 0.3 | 0.3 | 0.3 | 0.6 | 0.4 | 0.4 | 0.5 | 0.6 | 0.4 | 1.3 | 0.4 | 0.2 | 0.6 | 0.5 | 0.2 | 0.7 | Binding of serum SARS-yellow to linear peptides of protein X2 [1]: 0.2; Binding of serum SARS-yellow to looped/cyclic peptides of protein X2 of SARS-CoV Urbani [1]: 0.6; Binding of a rabbit serum to linear peptides [3]: 0.3; Binding of a rabbit serum to looped peptides [3]: 0.5 |
| IQFMMSRRRLLACLC | 0.7 | 0.4 | 0.5 | 0.2 | 0.4 | 0.5 | 0.6 | 0.3 | 0.6 | 0.2 | 0.7 | 0.3 | 0.5 | 0.4 | 0.6 | 0.2 | 0.3 | 0.8 | 0.6 | 0.4 | Binding of serum SARS-yellow to linear peptides of protein X2 [1]: 0.8; Binding of serum SARS-yellow to looped/cyclic peptides of protein X2 of SARS-CoV Urbani [1]: 0.5; Binding of a rabbit serum to linear peptides [3]: 0.5; Binding of a rabbit serum to looped peptides [3]: 1.1 |
| FIRQEEVQQELYSPL |  |  |  |  |  |  |  |  |  |  |  |  |  |  |  |  | 0.9 | 0.7 | 0.7 | 0.9 | Binding of serum 1a to linear peptides of protein X4 of SARS-CoV Urbani [1]: 0.8; Binding of serum 1b to linear peptides of protein X4 of SARS-CoV Urbani [1]: 0.6; Binding of serum 2 to linear peptides of protein X4 of SARS-CoV Urbani [1]: 0.5; Binding of serum 6 to linear peptides of protein X4 of SARS-CoV Urbani [1]: 0.5; Binding of serum 37 to linear peptides of protein X4 of SARS-CoV Urbani [1]: 0.8; Binding of serum 62 to linear peptides of protein X4 of SARS-CoV Urbani [1]: 0.7; Binding of serum London to linear peptides of protein X4 of SARS-CoV Urbani [1]: 0.7; Binding of serum SARS-green to linear peptides of protein X4 of SARS-CoV Urbani [1]: 0.5; Binding of serum SARS-yellow to linear peptides of protein X4 of SARS-CoV Urbani [1]: 0.7; Recognition of the peptide by sera of SARS-CoV infected individuals, and form (linear, looped/cyclic) in which it is recognized [1]: recognized in looped/cyclic form; Rabbit serum linear peptides [3]: 0.5; Rabbit serum looped peptides [3]: 0.5 |
